Data from ChEMBL document CHEMBL4418490, “N-(heteroaryl)-sulfonamide derivatives useful as s100-inhibitors” (2018).
Calls of active or inactive are those of the source. The rule behind the calls is not given here.

Assays:
MC-38 = experiment: Antitumor activity against C215 transfected MC38 cells implanted in C57BL/6 mouse assessed as inhibition of tumor growth at 30 mg/kg, po dosed daily for 16 days starting following day of tumor inoculation; format: functional, organism-based
[1] = Plasma concentration in C215 transfected MC38 cells implanted C57BL/6 mouse assessed as 2,5-dichloro-N-(6-chloro-4-hydroxypyridin-3-yl)thiophene-3-sulfonamide level at 5 mg/kg, po dosed as cassette formulation and measured at 4 hrs after post dose by LC-MS analysis; format: ADME, organism-based; conditions: in vivo
[2] = Plasma concentration in C215 transfected MC38 cells implanted C57BL/6 mouse at 1 mg/kg, iv dosed as cassette formulation and measured at 2 hrs after post dose by LC-MS analysis; format: ADME, organism-based
[3] = Plasma concentration in C215 transfected MC38 cells implanted C57BL/6 mouse at 5 mg/kg, po dosed as cassette formulation and measured at 4 hrs after post dose by LC-MS analysis; format: ADME, organism-based
[4] = Plasma concentration in C215 transfected MC38 cells implanted C57BL/6 mouse at 5 mg/kg, po dosed as cassette formulation and measured at 1 hr after post dose by LC-MS analysis; format: ADME, organism-based
[5] = Plasma concentration in C215 transfected MC38 cells implanted C57BL/6 mouse assessed as 2,5-dichloro-N-(6-chloro-4-hydroxypyridin-3-yl)thiophene-3-sulfonamide level at 5 mg/kg, po dosed as cassette formulation and measured at 1 hr after post dose by LC-MS analysis; format: ADME, organism-based; conditions: in vivo
[6] = Plasma concentration in C215 transfected MC38 cells implanted C57BL/6 mouse assessed as 2,5-dichloro-N-(6-chloro-4-hydroxypyridin-3-yl)thiophene-3-sulfonamide level at 1 mg/kg, iv dosed as cassette formulation and measured at 2 hrs after post dose by LC-MS analysis; format: ADME, organism-based; conditions: in vivo
[7] = Plasma concentration in C215 transfected MC38 cells implanted C57BL/6 mouse assessed as 2,5-dichloro-N-(6-chloro-4-hydroxypyridin-3-yl)thiophene-3-sulfonamide level at 1 mg/kg, iv dosed as cassette formulation and measured at 0.083 hrs after post dose by LC-MS analysis; format: ADME, organism-based; conditions: in vivo
[8] = Plasma concentration in C215 transfected MC38 cells implanted C57BL/6 mouse assessed as 2,5-dichloro-N-(6-chloro-4-hydroxypyridin-3-yl)thiophene-3-sulfonamide level at 5 mg/kg, po dosed as cassette formulation and measured at 0.5 hrs after post dose by LC-MS analysis; format: ADME, organism-based; conditions: in vivo
[9] = Plasma concentration in C215 transfected MC38 cells implanted C57BL/6 mouse at 1 mg/kg, iv dosed as cassette formulation and measured at 4 hrs after post dose by LC-MS analysis; format: ADME, organism-based
[10] = Plasma concentration in C215 transfected MC38 cells implanted C57BL/6 mouse at 1 mg/kg, iv dosed as cassette formulation and measured at 0.083 hrs after post dose by LC-MS analysis; format: ADME, organism-based
[11] = Plasma concentration in C215 transfected MC38 cells implanted C57BL/6 mouse assessed as 2,5-dichloro-N-(6-chloro-4-hydroxypyridin-3-yl)thiophene-3-sulfonamide level at 1 mg/kg, iv dosed as cassette formulation and measured at 1 hr after post dose by LC-MS analysis; format: ADME, organism-based; conditions: in vivo
[12] = Plasma concentration in C215 transfected MC38 cells implanted C57BL/6 mouse at 1 mg/kg, iv dosed as cassette formulation and measured at 7 hrs after post dose by LC-MS analysis; format: ADME, organism-based
[13] = Plasma concentration in C215 transfected MC38 cells implanted C57BL/6 mouse at 5 mg/kg, po dosed as cassette formulation and measured at 7 hrs after post dose by LC-MS analysis; format: ADME, organism-based
[14] = Plasma concentration in C215 transfected MC38 cells implanted C57BL/6 mouse assessed as 2,5-dichloro-N-(6-chloro-4-hydroxypyridin-3-yl)thiophene-3-sulfonamide level at 5 mg/kg, po dosed as cassette formulation and measured at 2 hrs after post dose by LC-MS analysis; format: ADME, organism-based; conditions: in vivo
[15] = Plasma concentration in C215 transfected MC38 cells implanted C57BL/6 mouse assessed as 2,5-dichloro-N-(6-chloro-4-hydroxypyridin-3-yl)thiophene-3-sulfonamide level at 1 mg/kg, iv dosed as cassette formulation and measured at 0.5 hrs after post dose by LC-MS analysis; format: ADME, organism-based; conditions: in vivo
[16] = Plasma concentration in C215 transfected MC38 cells implanted C57BL/6 mouse assessed as 2,5-dichloro-N-(6-chloro-4-hydroxypyridin-3-yl)thiophene-3-sulfonamide level at 1 mg/kg, iv dosed as cassette formulation and measured at 7 hrs after post dose by LC-MS analysis; format: ADME, organism-based; conditions: in vivo
[17] = Plasma concentration in C215 transfected MC38 cells implanted C57BL/6 mouse at 1 mg/kg, iv dosed as cassette formulation and measured at 0.5 hrs after post dose by LC-MS analysis; format: ADME, organism-based
[18] = Plasma concentration in C215 transfected MC38 cells implanted C57BL/6 mouse at 1 mg/kg, iv dosed as cassette formulation and measured at 1 hr after post dose by LC-MS analysis; format: ADME, organism-based
[19] = Plasma concentration in C215 transfected MC38 cells implanted C57BL/6 mouse assessed as 2,5-dichloro-N-(6-chloro-4-hydroxypyridin-3-yl)thiophene-3-sulfonamide level at 1 mg/kg, iv dosed as cassette formulation and measured at 4 hrs after post dose by LC-MS analysis; format: ADME, organism-based; conditions: in vivo
[20] = Plasma concentration in C215 transfected MC38 cells implanted C57BL/6 mouse assessed as 2,5-dichloro-N-(6-chloro-4-hydroxypyridin-3-yl)thiophene-3-sulfonamide level at 5 mg/kg, po dosed as cassette formulation and measured at 7 hrs after post dose by LC-MS analysis; format: ADME, organism-based; conditions: in vivo
[21] = Plasma concentration in C215 transfected MC38 cells implanted C57BL/6 mouse at 5 mg/kg, po dosed as cassette formulation and measured at 0.5 hrs after post dose by LC-MS analysis; format: ADME, organism-based
[22] = Plasma concentration in C215 transfected MC38 cells implanted C57BL/6 mouse at 5 mg/kg, po dosed as cassette formulation and measured at 2 hrs after post dose by LC-MS analysis; format: ADME, organism-based
[23] = Plasma concentration in C215 transfected MC38 cells implanted C57BL/6 mouse assessed as N-(5-bromo-3-hydroxypyrazin-2-yl)-1-(3,4-dichlorophenyl)methanesulfonamide level at 5 mg/kg, po dosed as cassette formulation and measured at 7 hrs after post dose by LC-MS analysis; format: ADME, organism-based; conditions: in vivo
[24] = Plasma concentration in C215 transfected MC38 cells implanted C57BL/6 mouse assessed as N-(5-bromo-3-hydroxypyrazin-2-yl)-1-(3,4-dichlorophenyl)methanesulfonamide level at 1 mg/kg, iv dosed as cassette formulation and measured at 1 hr after post dose by LC-MS analysis; format: ADME, organism-based; conditions: in vivo
[25] = Plasma concentration in C215 transfected MC38 cells implanted C57BL/6 mouse assessed as N-(5-bromo-3-hydroxypyrazin-2-yl)-1-(3,4-dichlorophenyl)methanesulfonamide level at 5 mg/kg, po dosed as cassette formulation and measured at 2 hrs after post dose by LC-MS analysis; format: ADME, organism-based; conditions: in vivo
[26] = Plasma concentration in C215 transfected MC38 cells implanted C57BL/6 mouse assessed as N-(5-bromo-3-hydroxypyrazin-2-yl)-1-(3,4-dichlorophenyl)methanesulfonamide level at 5 mg/kg, po dosed as cassette formulation and measured at 0.5 hrs after post dose by LC-MS analysis; format: ADME, organism-based; conditions: in vivo
[27] = Plasma concentration in C215 transfected MC38 cells implanted C57BL/6 mouse assessed as N-(5-bromo-3-hydroxypyrazin-2-yl)-1-(3,4-dichlorophenyl)methanesulfonamide level at 5 mg/kg, po dosed as cassette formulation and measured at 1 hr after post dose by LC-MS analysis; format: ADME, organism-based; conditions: in vivo
[28] = Plasma concentration in C215 transfected MC38 cells implanted C57BL/6 mouse assessed as N-(5-bromo-3-hydroxypyrazin-2-yl)-1-(3,4-dichlorophenyl)methanesulfonamide level at 1 mg/kg, iv dosed as cassette formulation and measured at 2 hrs after post dose by LC-MS analysis; format: ADME, organism-based; conditions: in vivo
[29] = Plasma concentration in C215 transfected MC38 cells implanted C57BL/6 mouse assessed as N-(5-bromo-3-hydroxypyrazin-2-yl)-1-(3,4-dichlorophenyl)methanesulfonamide level at 5 mg/kg, po dosed as cassette formulation and measured at 4 hrs after post dose by LC-MS analysis; format: ADME, organism-based; conditions: in vivo
[30] = Plasma concentration in C215 transfected MC38 cells implanted C57BL/6 mouse assessed as N-(5-bromo-3-hydroxypyrazin-2-yl)-1-(3,4-dichlorophenyl)methanesulfonamide level at 1 mg/kg, iv dosed as cassette formulation and measured at 7 hrs after post dose by LC-MS analysis; format: ADME, organism-based; conditions: in vivo
[31] = Plasma concentration in C215 transfected MC38 cells implanted C57BL/6 mouse assessed as N-(5-bromo-3-hydroxypyrazin-2-yl)-1-(3,4-dichlorophenyl)methanesulfonamide level at 1 mg/kg, iv dosed as cassette formulation and measured at 4 hrs after post dose by LC-MS analysis; format: ADME, organism-based; conditions: in vivo
[32] = Plasma concentration in C215 transfected MC38 cells implanted C57BL/6 mouse assessed as N-(5-bromo-3-hydroxypyrazin-2-yl)-1-(3,4-dichlorophenyl)methanesulfonamide level at 1 mg/kg, iv dosed as cassette formulation and measured at 0.5 hrs after post dose by LC-MS analysis; format: ADME, organism-based; conditions: in vivo
[33] = Plasma concentration in C215 transfected MC38 cells implanted C57BL/6 mouse assessed as N-(5-bromo-3-hydroxypyrazin-2-yl)-1-(3,4-dichlorophenyl)methanesulfonamide level at 1 mg/kg, iv dosed as cassette formulation and measured at 0.083 hrs after post dose by LC-MS analysis; format: ADME, organism-based; conditions: in vivo

**Q.** For `COc1ncc(S(=O)(=O)Nc2cncc(Cl)c2O)cc1Br`, which TGI (MC-38) is on record?
**A.** Active

**Q.** Which concentration [1] does the source give for `COc1cc(Cl)ncc1NS(=O)(=O)c1cc(Cl)sc1Cl` here?
**A.** 610 nM

**Q.** And the concentration at 2 h [2]?
**A.** 17500 nM

**Q.** What about the concentration at 4 h [3] of the same compound?
**A.** 47100 nM

**Q.** What about the concentration at 1 h [4] of the same compound?
**A.** 91600 nM

**Q.** What about the concentration [5] of the same compound?
**A.** 490 nM

**Q.** And the concentration [6]?
**A.** 210 nM

**Q.** What about the concentration [7] of the same compound?
**A.** 89 nM

**Q.** And the concentration [8]?
**A.** 460 nM

**Q.** And the concentration at 4 h [9]?
**A.** 7800 nM

**Q.** What about the concentration at 0.083 h [10] of the same compound?
**A.** 32200 nM

**Q.** What about the concentration [11] of the same compound?
**A.** 190 nM

**Q.** And the concentration at 7 h [12]?
**A.** 2500 nM

**Q.** What about the concentration at 7 h [13] of the same compound?
**A.** 50300 nM

**Q.** What about the concentration [14] of the same compound?
**A.** 690 nM

**Q.** What about the concentration [15] of the same compound?
**A.** 200 nM

**Q.** And the concentration [16]?
**A.** 130 nM

**Q.** What about the concentration at 0.5 h [17] of the same compound?
**A.** 19300 nM

**Q.** What about the concentration at 1 h [18] of the same compound?
**A.** 23700 nM

**Q.** And the concentration [19]?
**A.** 180 nM

**Q.** And the concentration [20]?
**A.** 780 nM

**Q.** And the concentration at 0.5 h [21]?
**A.** 86800 nM

**Q.** And the concentration at 2 h [22]?
**A.** 109000 nM

**Q.** Which results are given for `COc1nc(Br)cnc1NS(=O)(=O)Cc1ccc(Cl)c(Cl)c1`?
**A.** concentration [23]: 1100 nM; concentration at 2 h [2]: 14900 nM; concentration at 4 h [3]: 59400 nM; concentration [24]: 320 nM; concentration at 1 h [4]: 69400 nM; concentration [25]: 800 nM; concentration [26]: 570 nM; concentration [27]: 860 nM; concentration [28]: 320 nM; concentration at 4 h [9]: 9200 nM; concentration at 0.083 h [10]: 25200 nM; concentration at 7 h [12]: 6200 nM; concentration [29]: 630 nM; concentration at 7 h [13]: 73500 nM; concentration [30]: 200 nM; concentration at 0.5 h [17]: 16800 nM; concentration at 1 h [18]: 17500 nM; concentration at 0.5 h [21]: 51700 nM; concentration [31]: 210 nM; concentration at 2 h [22]: 78900 nM; concentration [32]: 320 nM; concentration [33]: 120 nM
